Where a name gives a salt, the structure may show the parent alone. Read-outs that look alike come from different tables or passages of the source.
Experiments:
[1] = target: T1, cloned human m1 muscarinic receptor (Homo sapiens, UniProt P11229); experiment: Muscarinic binding activity, 3H-QNB, m1
T1 sequence (P11229 1-460): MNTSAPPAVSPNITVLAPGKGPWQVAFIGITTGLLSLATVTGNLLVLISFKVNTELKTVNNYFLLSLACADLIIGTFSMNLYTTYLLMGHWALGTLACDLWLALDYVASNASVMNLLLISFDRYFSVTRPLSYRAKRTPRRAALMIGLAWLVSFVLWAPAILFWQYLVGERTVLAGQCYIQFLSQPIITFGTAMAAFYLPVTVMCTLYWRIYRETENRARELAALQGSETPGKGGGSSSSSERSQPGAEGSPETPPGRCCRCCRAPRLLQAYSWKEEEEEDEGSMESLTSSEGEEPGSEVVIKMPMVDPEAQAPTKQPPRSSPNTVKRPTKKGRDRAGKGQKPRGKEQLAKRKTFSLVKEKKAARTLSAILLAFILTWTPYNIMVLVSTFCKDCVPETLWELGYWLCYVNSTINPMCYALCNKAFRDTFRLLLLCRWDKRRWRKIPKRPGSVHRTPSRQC
Method: (§1) The compound of interest is tested for its ability to inhibit binding to the cloned human m1, m2, m3, and m4 muscarinic receptor subtypes. The sources of receptors in these studies were membranes from stably transfected CHO cell lines which were expressing each of the receptor subtypes. Following growth, the cells were pelleted and subsequently homogenized using a Polytron in 50 volumes cold 10 mM Na/K phosphate buffer, pH 7.4 (Buffer B). The homgenates were centrifuged at 40,000×g for 20 minutes at 4° C. The resulting supernatants were discarded and the pellets were resuspended in Buffer B at a final concentration of 20 mg wet tissue/ml. These membranes were stored at −80° C. until utilized in the binding assays described below.
(§2) Binding to the cloned human muscarinic receptors was performed using ^3H-quinuclidinyl benzilate (QNB) (Watson et al., 1986). Briefly, membranes (approximately 8, 20, and 14 μg of protein assay for the m1, m2, and m4 containing membranes, respectively) were incubated with ^3H-QNB (final concentration of 100-200 pM) and increasing concentrations of unlabeled drug in a final volume of 2 ml at 25° C. for 90 minutes. Non-specific binding was assayed in the presence of 1 μM atropine. The incubations were terminated by vacuum filtration over GF/B glass fiber filters using a Skatron filtration apparatus and the filters were washed with cold 10 mM Na/K phosphate butter, pH 7.4. Scintillation cocktail was added to the filters and the vials were incubated overnight. The bound radioligand was quantified in a liquid scintillation counter (50% efficiency). The resulting data were analyzed for IC50 values (i.e. the concentration of compound required to inhibit binding by 50%) using the EBDA computer program (McPherson, 1985). Affinity values (Ki) were then determined using the following formula (Cheng and Prusoff, 1973); [formula]
(§3) To determine the degree of selectivity of a compound for binding the m2 receptor, the Ki value for m1 receptors was divided by the Ki value for m2 receptors. A higher ratio indicates a greater selectivity for binding the m2 muscarinic receptor.

[2] = target: T2, cloned human m4 muscarinic receptor (Homo sapiens, UniProt P08173); experiment: Muscarinic binding activity, 3H-QNB, m4
T2 sequence (P08173 1-479): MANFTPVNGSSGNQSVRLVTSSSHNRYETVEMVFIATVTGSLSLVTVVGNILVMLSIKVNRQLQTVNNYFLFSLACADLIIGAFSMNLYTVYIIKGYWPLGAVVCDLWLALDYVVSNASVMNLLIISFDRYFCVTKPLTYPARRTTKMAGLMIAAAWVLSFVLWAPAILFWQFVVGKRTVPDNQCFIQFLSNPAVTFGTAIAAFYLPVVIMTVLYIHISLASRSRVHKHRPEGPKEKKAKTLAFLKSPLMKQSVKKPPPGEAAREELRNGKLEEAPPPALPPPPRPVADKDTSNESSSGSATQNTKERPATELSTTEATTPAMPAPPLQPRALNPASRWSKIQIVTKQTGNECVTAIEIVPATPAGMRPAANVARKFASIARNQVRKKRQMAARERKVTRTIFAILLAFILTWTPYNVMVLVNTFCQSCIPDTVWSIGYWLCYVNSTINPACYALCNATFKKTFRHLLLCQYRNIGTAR
Method: as §1, §2

[3] = target: T3, cloned human m2 muscarinic receptor (Homo sapiens, UniProt P08172); experiment: Muscarinic binding activity, 3H-QNB, m2
T3 sequence (P08172 1-466): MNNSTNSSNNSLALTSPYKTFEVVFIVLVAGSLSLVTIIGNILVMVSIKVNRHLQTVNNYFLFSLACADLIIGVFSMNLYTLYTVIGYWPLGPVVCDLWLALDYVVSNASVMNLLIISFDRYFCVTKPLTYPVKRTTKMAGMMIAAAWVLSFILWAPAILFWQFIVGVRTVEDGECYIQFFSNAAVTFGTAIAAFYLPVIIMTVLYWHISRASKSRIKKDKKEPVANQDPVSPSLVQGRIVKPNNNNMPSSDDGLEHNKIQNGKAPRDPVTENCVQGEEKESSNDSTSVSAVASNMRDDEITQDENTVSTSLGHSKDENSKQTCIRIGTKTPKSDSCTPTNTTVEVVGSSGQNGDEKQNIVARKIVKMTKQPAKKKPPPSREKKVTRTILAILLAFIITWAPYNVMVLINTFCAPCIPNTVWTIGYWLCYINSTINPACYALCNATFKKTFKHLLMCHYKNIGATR
Method: as §1, §2, §3

[4] = test system: ACh release from striatum; type: in vivo, rat; settings: for Peak ACh release as % increase over Baseline: striatum of conscious rat
Method: Surgery: For these studies, male Sprague-Dawley Rats (250-350 g) were anesthetized with sodium pentobarbital (54 mg/kg, ip) and placed on a Kopf sterotaxic apparatus. The skull was exposed and drilled through to the dura at a point 0.2 mm anterior and 3.0 mm lateral to the bregma. At these coordinates, a guide cannula was positioned at the outer edge of the dura through the drilled opening, lowered perpendicularly to a depth of 2.5 mm, and permanently secured with dental cement to bone screws. Following the surgery, rats were given ampicillin (40 mg/kg, ip) and individually housed in modified cages. A recovery period of approximately 3 to 7 days was allowed before the microdialysis procedure was undertaken.
Microdialysis: All of the equipment and instrumentation used to conduct in vivo microdialysis was obtained from Bioanalytical Systems, Inc. (BAS). The microdialysis procedure involved the insertion through the guide cannula of a thin, needle-like perfusable probe (CMA/12,3 mm×0.5 mm) to a depth of 3 mm in striatum beyond the end of the guide. The probe was connected beforehand with tubing to a microinjection pump (CMA-/100). Rats were collared, tethered, and, following probe insertion, were placed in a large, clear, plexiglass bowl with litter material and access to food and water. The probe was perfused at 2 μl/min with Ringer's buffer (NaCl 147 mM; KCl 3.0 mM; CaCl2 1.2 mM; MgCl2 1.0 mM) containing 5.5 mM glucose, 0.2 mM L-ascorbate, and 1 μM neostigmine bromide at pH 7.4). To achieve stable baseline readings, microdialysis was allowed to proceed for 90 minutes prior to the collection of fractions. Fractions (20 μl) were obtained at 10 minute intervals over a 3 hour period using a refrigerated collector (CMA170 or 200). Four to five baseline fractions were collected, following which the drug or combination of drugs to be tested was administered to the animal. Upon completion of the collection, each rat was autopsied to determine accuracy of probe placement.
Acetylcholine (ACh) analysis: The concentration of ACh in collected samples of microdialysate was determined using HPLC/electrochemical detection. Samples were auto-injected (Waters 712 Refrigerated Sample Processor) onto a polymeric analytical HPLC column (BAS, MF-6150) and eluted with 50 mM Na2HPO4, pH 8.5. To prevent bacterial growth, Kathon CG reagent (0.005%) (BAS) was included in the mobile phase. Eluent from the analytical column, containing separated ACh and choline, was then immediately passed through an immobilized enzyme reactor cartridge (BAS, MF-6151) coupled to the column outlet. The reactor contained both acetylcholinesterase and choline oxidase covalently bound to a polymeric backbone. […] Data acquisition was carried out using an IBM Model 70 computer equipped with a microchannel IEEE board. Integration and quantification of peaks were accomplished using “Maxima” chromatography software (Waters Corporation). Total run time per sample was 11 minutes at a flow rate of 1 ml/min. Retention times for acetylcholine and choline were 6.5 and 7.8 minutes, respectively. To monitor and correct for possible changes in detector sensitivity during chromatography, ACh standards were included at the beginning, middle and end of each sample queue.
Increases in ACh levels are consistent with presynaptic m2 receptor antagonism.

[5] = test system: ACh release from cortex; experiment: Microdialysis, ACh release from cortex of conscious rat; type: in vivo
[6] = range given for the named group of compounds, read-out: Ki, nM, m1
[7] = range given for the named group of compounds, read-out: Ki, nM, m4
[8] = range given for the named group of compounds, read-out: Ki, nM, m2

For `c1cnc(Oc2ccc(C(C3CCCCC3)N3CCN(C4CCCCC4)CC3)cc2)nc1` (single isomer, unassigned) [227(−)], the Ki [1, 6] was 2.1 to 224 nM, the Ki [2, 7] was 0.33 to 36 nM and the Ki [3, 8] was 0.05 to 16.6 nM.
`COc1ccc([S+]([O-])c2ccc(C(C)(C#N)N3CCN(C4CCCCC4)CC3)cc2)cc1` (centres unmarked) [Compound 289] showed a Ki [1, 6] of 2.1 to 224 nM, a Ki [2, 7] of 0.33 to 36 nM and a Ki [3, 8] of 0.05 to 16.6 nM.
In the case of `Nc1c2c(nc3ccccc13)CCCC2` [Tacrine, reference compound], the “Peak ACh release as % increase over Baseline” value (shortened to “Peak ACh release as % increase”) ([4]; Tacrine 3 mg/kg i.p. (FIG. 3)) is reported as 30 (FIG. 3) %.
Molecule `CC1CN(C2CCCCC2)CCN1C(C)c1ccc(Oc2ncccn2)cc1` (centres unmarked) [Compound 269] has a Ki [1, 6] of 2.1 to 224 nM, a Ki [2, 7] of 0.33 to 36 nM and a Ki [3, 8] of 0.05 to 16.6 nM.
Molecule `O=C(O)/C=C\C(=O)O.c1ccc(Oc2ccc(C3(N4CCN(C5CCCCC5)CC4)CCSCC3)cc2)cc1` has a melting point of 137 to 139 °C.
In the case of `C=C(c1ccc([S+]([O-])c2ccc(OC)cc2)cc1)C1CCN(C2CCCCC2)CC1` (single isomer, unassigned) [Compound 300], the Ki [1, 6] is reported as 2.1 to 224 nM, the Ki [2, 7] is reported as 0.33 to 36 nM and the Ki [3, 8] is reported as 0.05 to 16.6 nM.
With `COC(=O)C(c1ccc(S(=O)(=O)c2ccc(OC)cc2)cc1)N1CCN(C2CCCCC2)CC1` (centres unmarked) [Compound 214] the Ki [1, 6] was 2.1 to 224 nM, the Ki [2, 7] was 0.33 to 36 nM and the Ki [3, 8] was 0.05 to 16.6 nM.
`COc1ccc([S+]([O-])c2ccc(C(=O)C3CCN(C4CCCCC4)CC3)cc2)cc1` (centres unmarked) [Compound 305] gave a Ki [1, 6] of 2.1 to 224 nM, a melting point of 125 °C and a Ki [2, 7] of 0.33 to 36 nM. It also gave a Ki [3, 8] of 0.05 to 16.6 nM.
`C=C(c1ccc(Sc2ccc(OC)cc2)cc1)C1CCN(C2CCCCC2)CC1` [Compound 302] gave a Ki [1, 6] of 2.1 to 224 nM, a Ki [2, 7] of 0.33 to 36 nM and a Ki [3, 8] of 0.05 to 16.6 nM.
In the case of `C=C(c1ccc([S+]([O-])c2ccc(OC)cc2)cc1)C1CCN(C2CCCCC2)CC1` (centres unmarked) [Compound 304], the Ki [1, 6] is reported as 2.1 to 224 nM, the Ki [2, 7] is reported as 0.33 to 36 nM and the Ki [3, 8] is reported as 0.05 to 16.6 nM.
With `CC(C)C(c1ccc(Oc2ncccn2)cc1)N1CCN(C2CCCCC2)CC1` (centres unmarked) [Compound 232] the Ki [1] was 2.1 to 224 nM, the Ki [2] was 0.33 to 36 nM and the Ki [3] was 0.05 to 16.6 nM.
Work on `COC(=O)C(C)(c1ccc([S+]([O-])c2ccc(OC)cc2)cc1)N1CCN(C2CCCCC2)CC1` (centres unmarked) [Compound 296] yielded a Ki [1, 6] of 2.1 to 224 nM, a Ki [2, 7] of 0.33 to 36 nM and a Ki [3, 8] of 0.05 to 16.6 nM.
`C=C(c1ccc([S+]([O-])c2ccc(OC)cc2)cc1)C1CCN(C2CCCCC2)CC1` (single isomer, unassigned) [Compound 301] gave a melting point of 141 to 142 °C.
For `C=C(c1ccc(S(=O)(=O)c2ccc(OC)cc2)cc1)C1CCN(C2CCN(C(=O)OCC)CC2)CC1` [Compound 760], the Ki [3, 8] was 0.03 to 0.48 nM.
For `COc1ccc(S(=O)(=O)c2ccc([C@@H](C)N3CCN(C4CCCCC4)C[C@H]3C)cc2)cc1` [Compound 667], the melting point was 241 to 242 °C and the Ki [3, 8] was 0.03 to 0.48 nM.
For `COc1ccc([S+]([O-])c2ccc(C(C#N)N3CCN(C4CCCCC4)CC3)cc2)cc1` (single isomer, unassigned) [Compound 169], the “Peak ACh release as % increase” value ([5]; 1 mg/kg i.p. (FIG. 1)) was 75%, the “Peak ACh release as % increase” value ([5]; 10 mg/kg i.p. (FIG. 1)) was 400% and the “Peak ACh release as % increase” value ([5]; 30 mg/kg i.p. (FIG. 1)) was 1500%. The “increase in ACh release” value ([4]; oral administration, brain region not stated) was “significant increase”, the “Peak ACh release as % increase” value ([4]; 0.1 mg/kg i.p. (FIG. 2)) was 10% and the “Peak ACh release as % increase” value ([4]; 1 mg/kg i.p. (FIG. 2)) was 30%. The “Peak ACh release as % increase” value ([4]; 3 mg/kg i.p. (FIG. 2)) was 125%, the “Peak ACh release as % increase” value ([4]; 10 mg/kg i.p. (FIG. 2)) was 150% and the “Peak ACh release as % increase” value ([4]; 30 mg/kg i.p. (FIG. 2)) was 270%. The “Peak ACh release as % increase” value ([4]; Compound 169 1 mg/kg i.p. (FIG. 4)) was 40 (FIG. 4) %.
Molecule `C=C(c1ccc(Sc2ccc(OC)cc2)cc1)C1CCN(C2CCCCC2)CC1` (as salt: hydrochloride) [Compound 302] has a melting point of 227 to 230 °C.
With `COc1ccc(S(=O)(=O)c2ccc([C@H](C)N3CCN(C4CCCCC4)C[C@H]3C)cc2)cc1` [Compound 656] the melting point was 227 to 230 °C and the Ki [3, 8] was 0.03 to 0.48 nM.

From patent US6498168B2, “Muscarinic antagonists” (Schering Corporation, priority 1995, dated 2002)
